According to patent US20160089365A1, “IMMUNOSTIMULATORY COMPOUND” (Eisai R&D Management Co., Ltd., priority 2014, published 2016):
Entries after “also recorded” stand apart in the source; their conditions may differ.

Legend:
[1] = tested on: IFN-γ+ cells in CD8+ T cells of draining lymph nodes; assay: IFN-γ staining analysis of CD8+ T cells derived from draining lymph nodes in BNL 1MEA.7R.1 xenografts in wild-type mice; format: in vivo, Mouse (BALB/cAnNCrlCrlj; conditions: oral 10 mg/kg once a day for 7 days, Day 8
Procedure: Draining lymph nodes derived from BNL 1MEA.7R. 1 xenograft model in wild-type mice 1 day after once-daily oral administration of vehicle or lenvatinib mesilate (10 mg/kg) for 7 days in Referential Ex. 1 were isolated and mashed by a 5-mL syringe. The cell number in suspension was calculated and adjusted to 2.0×10^6 cells/mL with RPMI1640 containing 10% FBS, 100 U/mL penicillin, and 100 μg/mL streptomycin. One hundred microliters per well of the resultant cell suspension were plated in a 96-well cell culture cluster round bottom plate (Corning Incorporated) and cultured with BD Goldi-Stop™ (final concentration [conc.] 4 μL/6 mL) for 5 hours in 5% CO2 at 37° C. […] After washing with 200 μL of BD Perm/Wash buffer 2 times, the resultant cells were resuspended with 200 μL of BD Perm/Wash buffer, and analyzed to detect percentage of IFN-γ-positive cells in CD3- and CD8-positive cells by FACSAriaII SORP cell sorter (Becton, Dickinson and company) with BD FACSDiva 6.1.3 software (Becton, Dickinson and company). […]
Data are expressed as mean±SD. The differences in percentage of IFN-γ-positive cells in CD8^+ T cells between vehicle- and lenvatinib mesilate-treated groups were analyzed by the unpaired t test

[2] = tested on: BNL 1MEA.7R.1 murine hepatocellular carcinoma xenografts; assay: Antitumor effects in BNL 1MEA.7R.1 murine hepatocellular carcinoma xenografts in wild-type mice; format: in vivo, Mouse (BALB/cAnNCrlCrlj; conditions: Day 8
Procedure: The BNL 1MEA.7R. 1 murine hepatocellular carcinoma cells were cultured in Dulbecco's minimal essential medium (DMEM) supplemented with 10% heat-inactivated (56° C., 30 minutes) fetal bovine serum (FBS) and 100 U/mL penicillin, 100 μg/mL streptomycin, 1-glutamine (2 mmol/L) in humidified atmosphere of 5% CO2 at 37° C. This tumor cell line was developed from BALB/c mouse. The cells were washed with phosphate buffered saline (PBS), harvested with 0.25% trypsin-EDTA, and suspended with 50% BD Matrigel™ (BD biosciences) in the Hank's balanced salt solution (HBSS) at a density of 1×10^8 cells/mL. A 0.1 mL aliquot of the cell suspension was inoculated subcutaneously into the right flank of each mouse. Fifty days after the inoculation (Day 1), 15 out of 25 athymic mice and 25 out of 33 wild-type mice were selected based on their tumor volumes, shapes of tumors, physical condition, and body weights. Then the selected athymic and wild-type mice were randomly divided into 3 groups (Group 1-3 in the following table “Treatment Groups”) and 5 groups (Group 4-8), respectively. Animals assigned to Group 4, 6, 7, and 8 were used in Ex. 1 and 2. The mean tumor volumes of athymic and wild-type mice assigned to 8 groups were 169.5 and 157.5 mm^3, respectively, on Day 1.
(§1) Lenvatinib mesilate (3 and 10 mg/kg) or vehicle was orally administered at 0.1 mL/10 g body weight, once daily for 7 days (Day 1-7). The tumor volume and body weight of mice were measured on Day 1, 3, 6, and 8.
Tumor volume (mm^3)=length (mm)×width^2 (mm^2)×1/2
(§2) Data are expressed as mean±SD. The differences in relative tumor volume on Day 8 between vehicle- and lenvatinib mesilate-treated groups (3 and 10 mg/kg) in athymic and wild-type mice were analyzed by one-way analysis of variance followed by the Dunnett multiple comparison test, respectively. […]
To compare antitumor activities of lenvatinib mesilate between different strains, differences in % TGI of lenvatinib mesilate between athymic and wild-type mice at each dose were analyzed by the unpaired t test.

[3] = tested on: BNL 1MEA.7R.1 murine hepatocellular carcinoma xenografts; assay: Antitumor effects in BNL 1MEA.7R.1 murine hepatocellular carcinoma xenografts in athymic mice; format: in vivo, Mouse (CAnN.Cg-Foxn1nu/CrlCrlj; conditions: oral 3 and 10 mg/kg once daily for 7 days, Day 8
Procedure: The BNL 1MEA.7R. 1 murine hepatocellular carcinoma cells were cultured in Dulbecco's minimal essential medium (DMEM) supplemented with 10% heat-inactivated (56° C., 30 minutes) fetal bovine serum (FBS) and 100 U/mL penicillin, 100 μg/mL streptomycin, 1-glutamine (2 mmol/L) in humidified atmosphere of 5% CO2 at 37° C. This tumor cell line was developed from BALB/c mouse. The cells were washed with phosphate buffered saline (PBS), harvested with 0.25% trypsin-EDTA, and suspended with 50% BD Matrigel™ (BD biosciences) in the Hank's balanced salt solution (HBSS) at a density of 1×10^8 cells/mL. A 0.1 mL aliquot of the cell suspension was inoculated subcutaneously into the right flank of each mouse. Fifty days after the inoculation (Day 1), 15 out of 25 athymic mice and 25 out of 33 wild-type mice were selected based on their tumor volumes, shapes of tumors, physical condition, and body weights. […]
Lenvatinib mesilate (3 and 10 mg/kg) or vehicle was orally administered at 0.1 mL/10 g body weight, once daily for 7 days (Day 1-7). The tumor volume and body weight of mice were measured on Day 1, 3, 6, and 8. […]
as §2

[4] = Body weight of mice during the xenograft study; format: in vivo, Mouse; conditions: athymic and wild-type mice, oral 3 and 10 mg/kg once daily for 7 days, during the study period
Procedure: as §1

[5] = tested on: tumor-associated macrophage (TAM) population in tumor; assay: Immune population analysis in BNL 1MEA.7R.1 xenograft tumor of wild-type mice by flow cytometry; format: in vivo, Mouse (BALB/cAnNCrlCrlj; conditions: oral 10 mg/kg once a day for 7 days, Day 8
Procedure: Half-cut tumor samples collected from BNL 1MEA.7R.1 xenograft model in wild-type mice 1 day after the administration of vehicle or lenvatinib mesilate (10 mg/kg) in Referential Ex. 1 (Group 4, 6, 7, and 8) were minced with a razor on ice. The tumor fragments were digested with collagenase (1900 U/mL) and deoxyribonuclease I (160 KIU/mL) in HBSS for 1 hour at 37° C. with magnetic stirring in flasks. After filtering through cell strainer (pore size 70 μm), harvested cells were washed 3 times with flow cytometry buffer (PBS supplemented with 0.5% bovine serum albumin and 2 mmol/L EDTA). Cells were resuspended with 200 μL of FCM buffer containing 5 μg/mL Mouse BD Fc Block™ (BD biosciences), and incubated at 4° C. for 10 minutes. Antibody cocktail (dilution; 1:2 in FCM buffer) 1 and 2 were prepared as below.
One hundred microliters of cell suspension was mixed with 100 μL of the antibody cocktail 1 or 2 in each well of two 96-well cell culture round bottom plates (Corning Incorporated), and incubated at 4° C. for 30 minutes in a light protected. […] Data were analyzed by FCM analysis software FlowJo 7.6.5 (Tree Star, Inc.).
Data are expressed as mean±SD. The differences in percentage of target cells in CD45^+ cells between vehicle- and lenvatinib mesilate-treated groups were analyzed by the unpaired t test.

SMILES: COc1cc2nccc(Oc3ccc(NC(=O)NC4CC4)c(Cl)c3)c2cc1C(N)=O [lenvatinib mesilate, 4-(3-chloro-4-(cyclopropylaminocarbonyl)aminophenoxy)-7-methoxy-6-quinolinecarboxamide]
- percentage of IFN-γ+ cells in CD8+ T cells in dLN compared to vehicle [1]: significantly increased
- % TGI in wild-type mice compared to athymic mice at each dose ([2]; oral 3 and 10 mg/kg once daily for 7 days): significantly larger
- tumor shrinkage in individual animals ([2]; wild-type mice, both treatment groups (3 and 10 mg/kg)): tumors from all animals shrank
- tumor volume compared to vehicle ([2]; wild-type mice, oral 3 and 10 mg/kg once daily for 7 days): significant reduction in tumor volume
- tumor volume compared to vehicle [3]: no significant difference; also recorded: only tumor growth delay
- body weight loss [4]: Any severe body weight loss was not observed
- percentage of TAM population (CD45+CD11b+Ly6G-F4/80+Ly6Clow) in total CD45+ cells compared to vehicle [5]: significant reduction
- percentage of immature TAM (CD45+CD11b+Ly6G-F4/80-Ly6Chigh) in total CD45+ cells compared to vehicle [5]: increased
